Where two headings read alike, the source gives them in different places.
Experiments:
Type in all cases: cell-based
Pseudomonas aeruginosa = test: Extended time kill study, Example 34 (0 to 24 h); settings: 4 × MIC
Procedure, shortened: (§1)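 Strain suspensions prepared as for MIC testing were mixed 1:1 with compound solution at higher multiples of MIC. Samples taken over 0 to 24 h were diluted in test medium and plated on agar, and colonies were counted after 24–48 h incubation.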

Staphylococcus aureus = test: Extended time kill study, Example 34 (0 to 24 h)
Procedure, shortened: as §1

[1] = system: Acinetobacter baumannii (ATCC 19606); test: MIC assay with different strains, Example 35
Procedure: (§2) The minimum inhibitory concentration (MIC) is used to determine the lowest concentration of a test product claiming antimicrobial effects that will inhibit growth of a microorganism. Each microbial suspension was adjusted approximately 10^7 to 10^8 colony forming units (CFU) per mL and labeled as the stock suspension. The stock suspension was further diluted to 1:200 in Mueller Hinton broth to obtain a test sample having a concentration of […]. The test sample was then tested for MIC as described in M202.R02. After incubation, each tube was examined for turbidity, which indicated growth or no growth. For the tubes where the product rendered the media turbid, an aliquot of the media was streaked onto agar plates to confirm growth or lack of growth.

[2] = system: Corynebacterium jeikeium (ATCC 43734); test: MIC assay with different strains, Example 35
Procedure: as §2

[3] = system: Enterobacter aerogenes (ATCC 13048); test: MIC assay with different strains, Example 35
Procedure: as §2

[4] = system: Haemophilus influenza (ATCC 19418); test: MIC assay with different strains, Example 35
Procedure: as §2

[5] = system: Pseudomonas aeruginosa (ATCC 9027); test: MIC assay with different strains, Example 35
Procedure: as §2

In the case of `CCCCCCCCCCCCOC(=O)C(C)NC.Cl` (stereo not shown) [Nex-59, Dodecyl 2-(methylamino)propanoate hydrochloride], the “Viable counts, Pseudomonas aeruginosa time kill study” value (Pseudomonas aeruginosa; 2 h) is reported as <1 Log10 CFU/mL, the “Viable counts, Pseudomonas aeruginosa time kill study” value (Pseudomonas aeruginosa; 4 h) is reported as <1 Log10 CFU/mL and the “Viable counts, Pseudomonas aeruginosa time kill study” value (Pseudomonas aeruginosa; 6 h) is reported as <1 Log10 CFU/mL. The “Viable counts, Pseudomonas aeruginosa time kill study” value (Pseudomonas aeruginosa; 24 h) was <1 Log10 CFU/mL, the “Viable counts, Pseudomonas aeruginosa time kill study” value (Pseudomonas aeruginosa; time 0) was 5.21 Log10 CFU/mL and the “Viable counts, Staphylococcus aureus time kill study” value (Staphylococcus aureus; 1 × MIC, 1 h) was <3 Log10 CFU/mL. The “Viable counts, Staphylococcus aureus time kill study” value (Staphylococcus aureus; 1 × MIC, 2 h) was <3 Log10 CFU/mL, the “Viable counts, Staphylococcus aureus time kill study” value (Staphylococcus aureus; 1 × MIC, 4 h) was <3 Log10 CFU/mL and the “Viable counts, Staphylococcus aureus time kill study” value (Staphylococcus aureus; 1 × MIC, 6 h) was <3 Log10 CFU/mL. For the same compound, the “Viable counts, Staphylococcus aureus time kill study” value (Staphylococcus aureus; 1 × MIC, 24 h) was <1 Log10 CFU/mL, the “Viable counts, Staphylococcus aureus time kill study” value (Staphylococcus aureus; 1×MIC, time 0) was 6.20 Log10 CFU/mL and the “Viable counts, Staphylococcus aureus time kill study” value (Staphylococcus aureus; 2 × MIC, 1 h) was <3 Log10 CFU/mL. For the same compound, the “Viable counts, Staphylococcus aureus time kill study” value (Staphylococcus aureus; 2 × MIC, 2 h) was <3 Log10 CFU/mL, the “Viable counts, Staphylococcus aureus time kill study” value (Staphylococcus aureus; 2 × MIC, 4 h) was <3 Log10 CFU/mL and the “Viable counts, Staphylococcus aureus time kill study” value (Staphylococcus aureus; 2 × MIC, 6 h) was <3 Log10 CFU/mL. The “Viable counts, Staphylococcus aureus time kill study” value (Staphylococcus aureus; 2 × MIC, 24 h) was <1 Log10 CFU/mL, the “Viable counts, Staphylococcus aureus time kill study” value (Staphylococcus aureus; 2 × MIC, time 0) was 6.19 Log10 CFU/mL and the “Viable counts, Staphylococcus aureus time kill study” value (Staphylococcus aureus; 4 × MIC, 1 h) was <3 Log10 CFU/mL. For the same compound, the “Viable counts, Staphylococcus aureus time kill study” value (Staphylococcus aureus; 4 × MIC, 2 h) was <3 Log10 CFU/mL, the “Viable counts, Staphylococcus aureus time kill study” value (Staphylococcus aureus; 4 × MIC, 4 h) was <3 Log10 CFU/mL and the “Viable counts, Staphylococcus aureus time kill study” value (Staphylococcus aureus; 4 × MIC, 6 h) was <3 Log10 CFU/mL. The “Viable counts, Staphylococcus aureus time kill study” value (Staphylococcus aureus; 4 × MIC, 24 h) was <1 Log10 CFU/mL, the “Viable counts, Staphylococcus aureus time kill study” value (Staphylococcus aureus; 4 × MIC, time 0) was 6.18 Log10 CFU/mL and the MIC ([1]; Acinetobacter baumannii, ATCC19606, Table 19 summary, read-out: MIC) was 800 µg/mL. For the same compound, the MIC ([1]; Example 35) was 0.08%, the Growth/no growth ([1]; Sample Concentration 0.01%) was “Growth” and the Growth/no growth ([1]; Sample Concentration 0.02%) was “Growth”. For the same compound, the Growth/no growth ([1]; Sample Concentration 0.04%) was “Growth”, the MIC ([2]; Corynebacterium jeikeium, ATCC43734, Table 19 summary, read-out: MIC) was ≥ 100 µg/mL and the MIC ([2]; Example 35) was “≦0.01%”. The Growth/no growth ([2]; Sample Concentration 0.01%) was “No”, the Growth/no growth ([2]; Sample Concentration 0.02%) was “No” and the Growth/no growth ([2]; Sample Concentration 0.04%) was “No”. For the same compound, the Growth/no growth ([2]; Sample Concentration 0.08%) was “No”, the Growth/no growth ([2]; Sample Concentration 0.16%) was “No” and the Growth/no growth ([2]; Sample Concentration 0.32%) was “No”. The Growth/no growth ([2]; Sample Concentration 0.63%) was “No”, the Growth/no growth ([2]; Sample Concentration 1.25%) was “No” and the Growth/no growth ([2]; Sample Concentration 2.5%) was “No”. The MIC ([3]; Example 35) was 0.16%, the MIC ([3]; Klebsiella aerogenes, ATCC13048, Table 19 summary, read-out: MIC) was 1600 µg/mL and the Growth/no growth ([3]; Sample Concentration 0.01%) was “Growth”. For the same compound, the Growth/no growth ([3]; Sample Concentration 0.02%) was “Growth”, the Growth/no growth ([3]; Sample Concentration 0.04%) was “Growth” and the Growth/no growth ([3]; Sample Concentration 0.08%) was “Growth”. The Growth/no growth ([3]; Sample Concentration 0.16%) was “No”, the Growth/no growth ([3]; Sample Concentration 0.32%) was “No” and the Growth/no growth ([3]; Sample Concentration 0.63%) was “No”. The Growth/no growth ([3]; Sample Concentration 1.25%) was “No”, the Growth/no growth ([3]; Sample Concentration 2.5%) was “No” and the MIC ([4]; Example 35) was “≦0.01%”. The MIC ([4]; Haemophilus, ATCC19418) was ≥ 100 µg/mL, the Growth/no growth ([4]; Sample Concentration 0.01%) was “No” and the Growth/no growth ([4]; Sample Concentration 0.02%) was “No”. For the same compound, the Growth/no growth ([4]; Sample Concentration 0.04%) was “No”, the Growth/no growth ([4]; Sample Concentration 0.08%) was “No” and the Growth/no growth ([4]; Sample Concentration 0.16%) was “No”. For the same compound, the Growth/no growth ([4]; Sample Concentration 0.32%) was “No”, the Growth/no growth ([4]; Sample Concentration 0.63%) was “No” and the Growth/no growth ([4]; Sample Concentration 1.25%) was “No”. For the same compound, the Growth/no growth ([4]; Sample Concentration 2.5%) was “No”, the MIC ([5]; Example 35) was 0.16% and the MIC ([5]; Pseudomonas aeruginosa, ATCC9027, Table 19 summary, read-out: MIC) was 1600 µg/mL. For the same compound, the Growth/no growth ([5]; Sample Concentration 0.01%) was “Growth”, the Growth/no growth ([5]; Sample Concentration 0.02%) was “Growth” and the Growth/no growth ([5]; Sample Concentration 0.04%) was “Growth”. For the same compound, the Growth/no growth ([5]; Sample Concentration 0.08%) was “Growth”.
